# Experimental data from paper PMC9609070 (ACS Omega, 2022).
# Like-named read-outs stand apart in the source and are kept apart here.
# Legend:
# [1] = Preferential solvation analysis by inverse Kirkwood–Buff integrals; assay type: physicochemical; settings: NMP+water, T=298.15 K
# [2] = Hildebrand solubility parameter of meloxicam; assay type: physicochemical; settings: expected from the solubility maximum in neat NMP; T=298.15 K
# [3] = Solid-phase analyses; assay type: physicochemical; settings: after saturation in neat water, x1=0.50 mixture and neat NMP
# [4] = neat water, x1=0.000, cited from earlier work
# [5] = neat water, x1=0.000; Thm=303.0 K; cited from earlier work
# [6] = cited from earlier work
# [7] = cited from earlier work; remark: listed apart in the source
# [8] = calculated by Fedors' groups contribution method; cited from earlier work
smiles,measurement,setting,value
"Cc1cnc(NC(=O)C2=C(O)c3ccccc3S(=O)(=O)N2C)s1 [Meloxicam, 4-hydroxy-2-methyl-N-(5-methyl-2-thiazolyl)-2H-1,2-benzothiazine-3-carboxamide-1,1-dioxide]","100 δx1,3 (preferential solvation parameter by NMP)",[1]; x1=0.45,5.28
same,D (derivative of Gibbs energy of transfer vs x1),[1]; x1=0.45,–21.85 kJ·mol^–1
same,"G1,3 (Kirkwood–Buff integral)",[1]; x1=0.45,–250.7 cm^3·mol^–1
same,"G2,3 (Kirkwood–Buff integral)",[1]; x1=0.45,–503.6 cm^3·mol^–1
same,"100 δx1,3 (preferential solvation parameter by NMP)",[1]; x1=0.50,4.96
same,D (derivative of Gibbs energy of transfer vs x1),[1]; x1=0.50,–18.40 kJ·mol^–1
same,"G1,3 (Kirkwood–Buff integral)",[1]; x1=0.50,–234.5 cm^3·mol^–1
same,"G2,3 (Kirkwood–Buff integral)",[1]; x1=0.50,–487.7 cm^3·mol^–1
same,"100 δx1,3 (preferential solvation parameter by NMP)",[1]; x1=0.55,4.49
same,D (derivative of Gibbs energy of transfer vs x1),[1]; x1=0.55,–15.39 kJ·mol^–1
same,"G1,3 (Kirkwood–Buff integral)",[1]; x1=0.55,–221.7 cm^3·mol^–1
same,"G2,3 (Kirkwood–Buff integral)",[1]; x1=0.55,–469.5 cm^3·mol^–1
same,"100 δx1,3 (preferential solvation parameter by NMP)",[1]; x1=0.60,3.93
same,D (derivative of Gibbs energy of transfer vs x1),[1]; x1=0.60,–12.84 kJ·mol^–1
same,"G1,3 (Kirkwood–Buff integral)",[1]; x1=0.60,–211.6 cm^3·mol^–1
same,"G2,3 (Kirkwood–Buff integral)",[1]; x1=0.60,–449.4 cm^3·mol^–1
same,"100 δx1,3 (preferential solvation parameter by NMP)",[1]; x1=0.65,3.34
same,D (derivative of Gibbs energy of transfer vs x1),[1]; x1=0.65,–10.75 kJ·mol^–1
same,"G1,3 (Kirkwood–Buff integral)",[1]; x1=0.65,–203.7 cm^3·mol^–1
same,"G2,3 (Kirkwood–Buff integral)",[1]; x1=0.65,–428.7 cm^3·mol^–1
same,"100 δx1,3 (preferential solvation parameter by NMP)",[1]; x1=0.70,2.76
same,D (derivative of Gibbs energy of transfer vs x1),[1]; x1=0.70,–9.13 kJ·mol^–1
same,"G1,3 (Kirkwood–Buff integral)",[1]; x1=0.70,–197.7 cm^3·mol^–1
same,"G2,3 (Kirkwood–Buff integral)",[1]; x1=0.70,–409.5 cm^3·mol^–1
same,"100 δx1,3 (preferential solvation parameter by NMP)",[1]; x1=0.75,2.24
same,D (derivative of Gibbs energy of transfer vs x1),[1]; x1=0.75,–7.99 kJ·mol^–1
same,"G1,3 (Kirkwood–Buff integral)",[1]; x1=0.75,–193.3 cm^3·mol^–1
same,"G2,3 (Kirkwood–Buff integral)",[1]; x1=0.75,–394.9 cm^3·mol^–1
same,"100 δx1,3 (preferential solvation parameter by NMP)",[1]; x1=0.80,1.81
same,D (derivative of Gibbs energy of transfer vs x1),[1]; x1=0.80,–7.33 kJ·mol^–1
same,"G1,3 (Kirkwood–Buff integral)",[1]; x1=0.80,–190.1 cm^3·mol^–1
same,"G2,3 (Kirkwood–Buff integral)",[1]; x1=0.80,–388.5 cm^3·mol^–1
same,"100 δx1,3 (preferential solvation parameter by NMP)",[1]; x1=0.85,1.44
same,D (derivative of Gibbs energy of transfer vs x1),[1]; x1=0.85,–7.18 kJ·mol^–1
same,"G1,3 (Kirkwood–Buff integral)",[1]; x1=0.85,–187.8 cm^3·mol^–1
same,"G2,3 (Kirkwood–Buff integral)",[1]; x1=0.85,–394.4 cm^3·mol^–1
same,"100 δx1,3 (preferential solvation parameter by NMP)",[1]; x1=0.90,1.10
same,D (derivative of Gibbs energy of transfer vs x1),[1]; x1=0.90,–7.54 kJ·mol^–1
same,"G1,3 (Kirkwood–Buff integral)",[1]; x1=0.90,–186.0 cm^3·mol^–1
same,"G2,3 (Kirkwood–Buff integral)",[1]; x1=0.90,–417.8 cm^3·mol^–1
same,"100 δx1,3 (preferential solvation parameter by NMP)",[1]; x1=0.95,0.69
same,D (derivative of Gibbs energy of transfer vs x1),[1]; x1=0.95,–8.41 kJ·mol^–1
same,"G1,3 (Kirkwood–Buff integral)",[1]; x1=0.95,–184.2 cm^3·mol^–1
same,"G2,3 (Kirkwood–Buff integral)",[1]; x1=0.95,–467.3 cm^3·mol^–1
same,"100 δx1,3 (preferential solvation parameter by NMP)",[1]; x1=1.00,0.00
same,D (derivative of Gibbs energy of transfer vs x1),[1]; x1=1.00,–9.81 kJ·mol^–1
same,"G1,3 (Kirkwood–Buff integral)",[1]; x1=1.00,–181.8 cm^3·mol^–1
same,"G2,3 (Kirkwood–Buff integral)",[1]; x1=1.00,–563.4 cm^3·mol^–1
same,"Hildebrand solubility parameter δ3, solubility-based",[2],lower than 23.6 MPa^1/2
same,"Crystal form after saturation (XRD, FTIR)",[3],did not suffer crystal polymorphic transitions or solvate formation
same,Activity coefficient (γ3),[4]; T=293.15 K,2396
same,Activity coefficient (γ3),[4]; T=298.15 K,2708
same,Activity coefficient (γ3),[4]; T=303.15 K,3055
same,Activity coefficient (γ3),[4]; T=308.15 K,3376
same,Activity coefficient (γ3),[4]; T=313.15 K,3755
same,TΔsolnS°,[5],–26.66 kJ·mol^–1
same,ΔsolnG° (apparent Gibbs energy of dissolution),[5],34.35 kJ·mol^–1
same,ΔsolnH° (apparent enthalpy of dissolution),[5],7.69 kJ·mol^–1
same,ΔsolnS° (apparent entropy of dissolution),[5],–87.99 J·mol^–1·K^–1
same,Ideal mole fraction solubility (x3^id),[6]; T=293.15 K,2.607 × 10^–3 mole fraction
same,Ideal mole fraction solubility (x3^id),[6]; T=298.15 K,3.079 × 10^–3 mole fraction
same,Ideal mole fraction solubility (x3^id),[6]; T=303.15 K,3.627 × 10^–3 mole fraction
same,Ideal mole fraction solubility (x3^id),[6]; T=308.15 K,4.260 × 10^–3 mole fraction
same,Ideal mole fraction solubility (x3^id),[6]; T=313.15 K,4.991 × 10^–3 mole fraction
same,TΔsolnS°,"[6]; ideal, Thm=303.0 K",10.61 kJ·mol^–1
same,ΔsolnG° (apparent Gibbs energy of dissolution),"[6]; ideal, Thm=303.0 K",14.16 kJ·mol^–1
same,ΔsolnH° (apparent enthalpy of dissolution),"[6]; ideal, Thm=303.0 K",24.78 kJ·mol^–1
same,ΔsolnS° (apparent entropy of dissolution),"[6]; ideal, Thm=303.0 K",35.03 J·mol^–1·K^–1
same,Solubility-increasing effect,[7]; Carbitol as cosolvent,1144 times
same,Solubility-increasing effect,"[7]; N,N-dimethylformamide (DMF) as cosolvent","11,233 times"
same,Solubility-increasing effect,[7]; N-methylformamide (NMF) as cosolvent,1399 times
same,Solubility-increasing effect,[7]; dimethyl sulfoxide (DMSO) as cosolvent,6956 times
same,Hildebrand solubility parameter δ3,[8],32.1 MPa^1/2
